Results published in PubChem BioAssay AID1259407 (Chemical Carcinogenesis Research Information System (CCRIS), 2018).
Calls of active or inactive are those of the source. How the calls were made is not given here.

System: CCRIS mutagenicity, Ames/micronucleus/aberration tests
Assay: CCRIS mutagenicity studies
[1] = Test System: AMES SALMONELLA TYPHIMURIUM, Strain/Indicator: TA97, Metabolic Activation: NONE, Method: STANDARD PLATE
[2] = Test System: AMES SALMONELLA TYPHIMURIUM, Strain/Indicator: TA97, Metabolic Activation: RAT, LIVER, S-9, AROCLOR 1254, Method: STANDARD PLATE
[3] = Test System: AMES SALMONELLA TYPHIMURIUM, Strain/Indicator: TA98, Metabolic Activation: NONE, Method: STANDARD PLATE
[4] = Test System: AMES SALMONELLA TYPHIMURIUM, Strain/Indicator: TA98, Metabolic Activation: RAT, LIVER, S-9, AROCLOR 1254, Method: STANDARD PLATE
[5] = Test System: AMES SALMONELLA TYPHIMURIUM, Strain/Indicator: TA100, Metabolic Activation: NONE, Method: STANDARD PLATE
[6] = Test System: AMES SALMONELLA TYPHIMURIUM, Strain/Indicator: TA100, Metabolic Activation: RAT, LIVER, S-9, AROCLOR 1254, Method: STANDARD PLATE
[7] = Test System: AMES SALMONELLA TYPHIMURIUM, Strain/Indicator: TA1535, Metabolic Activation: NONE, Method: STANDARD PLATE
[8] = Test System: AMES SALMONELLA TYPHIMURIUM, Strain/Indicator: TA1537, Metabolic Activation: NONE, Method: STANDARD PLATE
[9] = Test System: AMES SALMONELLA TYPHIMURIUM, Strain/Indicator: TA1538, Metabolic Activation: NONE, Method: STANDARD PLATE
[10] = Test System: AMES SALMONELLA TYPHIMURIUM, Strain/Indicator: TA98, Metabolic Activation: NONE, Method: PREINCUBATION
[11] = Test System: AMES SALMONELLA TYPHIMURIUM, Strain/Indicator: TA100, Metabolic Activation: NONE, Method: PREINCUBATION
[12] = Test System: AMES SALMONELLA TYPHIMURIUM, Strain/Indicator: TA1535, Metabolic Activation: NONE, Method: PREINCUBATION
[13] = Test System: AMES SALMONELLA TYPHIMURIUM, Strain/Indicator: TA1537, Metabolic Activation: NONE, Method: PREINCUBATION

In the case of Oc1cccc(Cl)c1, the mutagenic call [1] is reported as “active; positive”, the mutagenic call [2] is reported as “active; positive” and the mutagenic call [3] is reported as “active; positive”. For the same compound, the mutagenic call [4] was “active; positive”, the mutagenic call [5] was “active; positive” and the mutagenic call [6] was “inactive; negative”. For the same compound, the mutagenic call (Test System: AMES SALMONELLA TYPHIMURIUM, Strain/Indicator: TA104, Metabolic Activation: NONE, Method: STANDARD PLATE) was “inactive; negative” and the mutagenic call (Test System: AMES SALMONELLA TYPHIMURIUM, Strain/Indicator: TA104, Metabolic Activation: RAT, LIVER, S-9, AROCLOR 1254, Method: STANDARD PLATE) was “inactive; negative”.

With ClCc1ccncc1 the mutagenic call [1] was “inactive; negative”, the mutagenic call [2] was “inactive; negative” and the mutagenic call [3] was “inactive; negative”. For the same compound, the mutagenic call [4] was “inactive; negative”, the mutagenic call [5] was “inactive; negative” and the mutagenic call (Test System: AMES SALMONELLA TYPHIMURIUM, Strain/Indicator: TA102, Metabolic Activation: NONE, Method: STANDARD PLATE) was “inactive; negative”. For the same compound, the mutagenic call (Test System: AMES SALMONELLA TYPHIMURIUM, Strain/Indicator: TA102, Metabolic Activation: RAT, LIVER, S-9, AROCLOR 1254, Method: STANDARD PLATE) was “inactive; negative”.

C/C=C/c1cc(OC)c(OC)cc1OC was tested, and the mutagenic call [1] was “inactive; negative”, the mutagenic call [2] was “inactive; negative” and the mutagenic call [3] was “inactive; negative”. For the same compound, the mutagenic call [4] was “inactive; negative”, the mutagenic call (Test System: AMES SALMONELLA TYPHIMURIUM, Strain/Indicator: TA100, Metabolic Activation: NONE) was “inactive; negative” and the mutagenic call [5] was “inactive; negative”. For the same compound, the mutagenic call [6] was “inactive; negative”, the mutagenic call (Test System: AMES SALMONELLA TYPHIMURIUM, Strain/Indicator: TA100, Metabolic Activation: S-9) was “active; positive” and the mutagenic call [7] was “active; positive”. For the same compound, the mutagenic call (Test System: AMES SALMONELLA TYPHIMURIUM, Strain/Indicator: TA1535, Metabolic Activation: RAT, LIVER, S-9, AROCLOR 1254, Method: STANDARD PLATE) was “inactive; negative”, the mutagenic call [8] was “inactive; negative” and the mutagenic call (Test System: AMES SALMONELLA TYPHIMURIUM, Strain/Indicator: TA1537, Metabolic Activation: RAT, LIVER, S-9, AROCLOR 1254, Method: STANDARD PLATE) was “inactive; negative”. The mutagenic call [9] was “inactive; negative”, the mutagenic call (Test System: AMES SALMONELLA TYPHIMURIUM, Strain/Indicator: TA1538, Metabolic Activation: RAT, LIVER, S-9, AROCLOR 1254, Method: STANDARD PLATE) was “inactive; negative” and the mutagenic call (Test System: UDS RAT HEPATOCYTES, Strain/Indicator: THY INCORP, Metabolic Activation: NONE, Method: LIQUID SCINTILLATION COUNTING) was “active; positive”.

COc1cc(NS(C)(=O)=O)ccc1Nc1c2ccccc2nc2cc(N=[N+]=[N-])ccc12 was tested, and the mutagenic call [8] was “active; positive”.

CCOC(=O)CC1OCCc2c1[nH]c1c(CC)c(O)ccc21 (stereo unspecified) was tested, and the mutagenic call [3] was “inactive; negative”, the mutagenic call (Test System: AMES SALMONELLA TYPHIMURIUM, Strain/Indicator: TA98, Metabolic Activation: RAT, LIVER, S-9 (10 OR 50 µL/PLATE), Method: STANDARD PLATE) was “inactive; negative” and the mutagenic call [5] was “inactive; negative”. For the same compound, the mutagenic call (Test System: AMES SALMONELLA TYPHIMURIUM, Strain/Indicator: TA100, Metabolic Activation: RAT, LIVER, S-9 (10 OR 50 µL/PLATE), Method: STANDARD PLATE) was “inactive; negative”, the mutagenic call [7] was “active; positive” and the mutagenic call (Test System: AMES SALMONELLA TYPHIMURIUM, Strain/Indicator: TA1535, Metabolic Activation: RAT, LIVER, S-9 (10 OR 50 µL/PLATE), Method: STANDARD PLATE) was “active; positive”. For the same compound, the mutagenic call [8] was “inactive; negative”, the mutagenic call (Test System: AMES SALMONELLA TYPHIMURIUM, Strain/Indicator: TA1537, Metabolic Activation: RAT, LIVER, S-9 (10 OR 50 µL/PLATE), Method: STANDARD PLATE) was “inactive; negative” and the mutagenic call (Test System: E. COLI, Strain/Indicator: WP2 UVRA, Metabolic Activation: NONE, Method: STANDARD PLATE) was “inactive; negative”. For the same compound, the mutagenic call (Test System: E. COLI, Strain/Indicator: WP2 UVRA, Metabolic Activation: RAT, LIVER, S-9 (10 OR 50 µL/PLATE), Method: STANDARD PLATE) was “inactive; negative”.

With O=C(Nc1cc(Cl)cc(Cl)c1O)c1c(O)c(Cl)cc(Cl)c1Cl the mutagenic call [3] was “inactive; negative”, the mutagenic call (Test System: AMES SALMONELLA TYPHIMURIUM, Strain/Indicator: TA98, Metabolic Activation: RAT, LIVER, S-9, KANECHLOR 400, Method: STANDARD PLATE) was “inactive; negative” and the mutagenic call [5] was “inactive; negative”. The mutagenic call (Test System: AMES SALMONELLA TYPHIMURIUM, Strain/Indicator: TA100, Metabolic Activation: RAT, LIVER, S-9, KANECHLOR 400, Method: STANDARD PLATE) was “inactive; negative”, the mutagenic call [7] was “inactive; negative” and the mutagenic call (Test System: AMES SALMONELLA TYPHIMURIUM, Strain/Indicator: TA1535, Metabolic Activation: RAT, LIVER, S-9, KANECHLOR 400, Method: STANDARD PLATE) was “inactive; negative”. For the same compound, the mutagenic call [8] was “inactive; negative”, the mutagenic call (Test System: AMES SALMONELLA TYPHIMURIUM, Strain/Indicator: TA1537, Metabolic Activation: RAT, LIVER, S-9, KANECHLOR 400, Method: STANDARD PLATE) was “inactive; negative” and the mutagenic call [9] was “inactive; negative”. For the same compound, the mutagenic call (Test System: AMES SALMONELLA TYPHIMURIUM, Strain/Indicator: TA1538, Metabolic Activation: RAT, LIVER, S-9, KANECHLOR 400, Method: STANDARD PLATE) was “inactive; negative”.

O=C(O)Cc1ccc([N+](=O)[O-])cc1 was tested, and the mutagenic call [10] was “active; positive”, the mutagenic call [11] was “active; positive” and the mutagenic call [12] was “inactive; negative”. For the same compound, the mutagenic call [13] was “inactive; negative” and the mutagenic call (Test System: AMES SALMONELLA TYPHIMURIUM, Strain/Indicator: TA1538, Metabolic Activation: NONE, Method: PREINCUBATION) was “inactive; negative”.

With CCCCCCCCCCCCCCCCCC(N)=O the mutagenic call [10] was “inactive; negative”, the mutagenic call (Test System: AMES SALMONELLA TYPHIMURIUM, Strain/Indicator: TA98, Metabolic Activation: RAT LIVER S-9, PHENOBARBITAL AND BETA-NAPHTHOFLAVONE, Method: PREINCUBATION) was “inactive; negative” and the mutagenic call [11] was “inactive; negative”. For the same compound, the mutagenic call (Test System: AMES SALMONELLA TYPHIMURIUM, Strain/Indicator: TA100, Metabolic Activation: RAT LIVER S-9, PHENOBARBITAL AND BETA-NAPHTHOFLAVONE, Method: PREINCUBATION) was “inactive; negative”, the mutagenic call [12] was “inactive; negative” and the mutagenic call (Test System: AMES SALMONELLA TYPHIMURIUM, Strain/Indicator: TA1535, Metabolic Activation: RAT LIVER S-9, PHENOBARBITAL AND BETA-NAPHTHOFLAVONE, Method: PREINCUBATION) was “inactive; negative”. The mutagenic call [13] was “inactive; negative”, the mutagenic call (Test System: AMES SALMONELLA TYPHIMURIUM, Strain/Indicator: TA1537, Metabolic Activation: RAT LIVER S-9, PHENOBARBITAL AND BETA-NAPHTHOFLAVONE, Method: PREINCUBATION) was “inactive; negative” and the mutagenic call (Test System: E.COLI, Strain/Indicator: WP2UVRA/PKM101, Metabolic Activation: NONE, Method: PREINCUBATION) was “inactive; negative”. For the same compound, the mutagenic call (Test System: E.COLI, Strain/Indicator: WP2UVRA/PKM101, Metabolic Activation: RAT LIVER S-9, PHENOBARBITAL AND BETA-NAPHTHOFLAVONE, Method: PREINCUBATION) was “inactive; negative”.
